Test results: patent publication US20250250230A1, “HETEROCYCLIC COMPOUND” (TAKEDA PHARMACEUTICAL COMPANY LIMITED, priority 2022, published 2025)

target: T1, human orexin type 2 receptor (Homo sapiens, UniProt O43614); assay: Measurement of orexin type 2 receptor agonist activity (calcium fluorescence, Fluo-4 AM, FDSS); assay type: cell-based; details: test compound 3 μM; CHO cells expressing human OX2 receptor; DMSO = 0%, orexin A (human) = 100%
T1 construct: expressed in transfected cells
T1 sequence (O43614 1-444): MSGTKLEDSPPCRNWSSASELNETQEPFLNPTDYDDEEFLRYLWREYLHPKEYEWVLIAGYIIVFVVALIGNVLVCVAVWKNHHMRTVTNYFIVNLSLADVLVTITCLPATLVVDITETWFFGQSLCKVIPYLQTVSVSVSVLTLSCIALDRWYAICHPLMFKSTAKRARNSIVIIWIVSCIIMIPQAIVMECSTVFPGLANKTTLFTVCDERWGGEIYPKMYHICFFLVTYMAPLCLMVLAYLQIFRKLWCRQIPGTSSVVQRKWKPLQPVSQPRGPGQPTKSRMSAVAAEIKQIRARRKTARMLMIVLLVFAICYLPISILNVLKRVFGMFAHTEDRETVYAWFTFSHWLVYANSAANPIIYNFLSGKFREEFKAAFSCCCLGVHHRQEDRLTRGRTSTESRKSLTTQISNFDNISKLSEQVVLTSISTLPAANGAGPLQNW
Method in brief: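 Agonist response scaled between vehicle (0%) and human orexin A at 10 nM final (100%), from 2-min kinetic Fluo-4 fluorescence reads. Stable hOX2R CHO-K1 clone, dye-loaded in HBSS/20 mM HEPES/0.1% BSA with 1.25 mM probenecid before compound addition.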

SMILES | OX2R agonist activity (3 μM, %) [%]
CS(=O)(=O)NC1COCCN(C(=O)[C@@H]2C[C@H]2c2ccccc2-c2c(F)cccc2F)C1 (stereo partly drawn) [Example 249, N-{(6R)-4-[(1R,2R)-2-(2′,6′-difluoro[1,1′-biphenyl]-2-yl)cyclopropane-1-carbonyl]-1,4-oxazepan-6-yl}methanesulfonamide, or N-{(6S)-4-[(1R,2R)-2-(2′,6′-difluoro[1,1′-biphenyl]-2-yl)cyclopropane-1-carbonyl]-1,4-oxazepan-6-yl}methanesulfonamide] | 105
CN(C)S(=O)(=O)NCC1CCN1C(=O)C1CC1c1ccccc1-c1c(F)cccc1F (stereo not drawn) [Example 250, N′-({1-[2-(2′,6′-difluoro[1,1′-biphenyl]-2-yl)cyclopropane-1-carbonyl]azetidin-2-yl}methyl)-N,N-dimethylsulfuric diamide optical isomer] | 104
CN(C)S(=O)(=O)NC[C@@H]1CCN1C(=O)[C@@H]1C[C@H]1c1ccccc1-c1c(F)cccc1F [Example 259, N′-({(2S)-1-[(1R,2R)-2-(2′,6′-difluoro[1,1′-biphenyl]-2-yl)cyclopropane-1-carbonyl]azetidin-2-yl}methyl)-N,N-dimethylsulfuric Diamide] | 98
C[C@H]1C[C@H](NS(C)(=O)=O)CN1C(=O)[C@@H]1C[C@H]1c1ccccc1-c1c(F)cccc1F [Example 262, N-{(3S,5S)-1-[(1R,2R)-2-(2′,6′-difluoro[1,1′-biphenyl]-2-yl)cyclopropane-1-carbonyl]-5-methylpyrrolidin-3-yl}methanesulfonamide] | 109
C[C@@H]1C[C@H](NS(C)(=O)=O)CN1C(=O)[C@@H]1C[C@H]1c1ccccc1-c1c(F)cccc1F [Example 263, N-{(3S,5R)-1-[(1R,2R)-2-(2′,6′-difluoro[1,1′-biphenyl]-2-yl)cyclopropane-1-carbonyl]-5-methylpyrrolidin-3-yl}methanesulfonamide] | 98
C[C@@H]1CN(C(=O)[C@@H]2C[C@H]2c2ccccc2-c2c(F)cccc2F)C[C@H]1NS(C)(=O)=O [Example 264, N-{(3S,4R)-1-[(1R,2R)-2-(2′,6′-difluoro[1,1′-biphenyl]-2-yl)cyclopropane-1-carbonyl]-4-methylpyrrolidin-3-yl}methanesulfonamide] | 97
C[C@H]1CN(C(=O)[C@@H]2C[C@H]2c2ccccc2-c2c(F)cccc2F)C[C@H]1NS(C)(=O)=O [Example 265, N-{(3S,4S)-1-[(1R,2R)-2-(2′,6′-difluoro[1,1′-biphenyl]-2-yl)cyclopropane-1-carbonyl]-4-methylpyrrolidin-3-yl}methanesulfonamide] | 86
CS(=O)(=O)N[C@@H]1CN(C(=O)[C@@H]2C[C@H]2c2ccccc2-c2c(F)cccc2F)CC[C@H]1O [Example 269, N-{(3R,4R)-1-[(1R,2R)-2-(2′,6′-difluoro[1,1′-biphenyl]-2-yl)cyclopropane-1-carbonyl]-4-hydroxypiperidin-3-yl}methanesulfonamide] | 100
CS(=O)(=O)N[C@@H]1CN(C(=O)[C@@H]2C[C@H]2c2ccccc2-c2c(F)cccc2F)CC[C@@H]1O [Example 270, N-{(3R,4S)-1-[(1R,2R)-2-(2′,6′-difluoro[1,1′-biphenyl]-2-yl)cyclopropane-1-carbonyl]-4-hydroxypiperidin-3-yl}methanesulfonamide] | 64
CS(=O)(=O)N[C@@H]1CN(C(=O)[C@@H]2C[C@H]2c2ccccc2-c2c(F)cccc2F)CC(F)(F)C1 [Example 271, N-{(3S)-1-[(1R,2R)-2-(2′,6′-difluoro[1,1′-biphenyl]-2-yl)cyclopropane-1-carbonyl]-5,5-difluoropiperidin-3-yl}methanesulfonamide] | 87
CS(=O)(=O)NC12CC1CN(C(=O)C1CC1c1ccccc1-c1c(F)cccc1F)C2 (stereo not drawn) [Example 272, N-{3-[2-(2′,6′-difluoro[1,1′-biphenyl]-2-yl)cyclopropane-1-carbonyl]-3-azabicyclo[3.1.0]hexan-1-yl}methanesulfonamide optical isomer] | 99

Further lines, results first:

OX2R agonist activity (3 μM, %) [%] | SMILES
98 | CS(=O)(=O)NC12CCC1CN(C(=O)C1CC1c1ccccc1-c1c(F)cccc1F)C2 (stereo not drawn) [Example 273, N-{3-[2-(2′,6′-difluoro[1,1′-biphenyl]-2-yl)cyclopropane-1-carbonyl]-3-azabicyclo[3.1.0]hexan-1-yl}methanesulfonamide optical isomer]
86 | CC1(C(=O)N2CCCC[C@H](NS(C)(=O)=O)C2)CC1c1ccccc1-c1c(F)cccc1F (stereo partly drawn) [Example 274, N-{(3S)-1-[(1R,2S)-2-(2′,6′-difluoro[1,1′-biphenyl]-2-yl)-1-methylcyclopropane-1-carbonyl]azepan-3-yl}methanesulfonamide, or N-{(3S)-1-[(1S,2R)-2-(2′,6′-difluoro[1,1′-biphenyl]-2-yl)-1-methylcyclopropane-1-carbonyl]azepan-3-yl}methanesulfonamide]
101 | CS(=O)(=O)NCC1CCN1C(=O)C1CC1c1ccccc1-c1c(F)cccc1F (stereo not drawn) [Example 276, N-({1-[2-(2′,6′-difluoro[1,1′-biphenyl]-2-yl)cyclopropane-1-carbonyl]azetidin-2-yl}methyl)methylsulfonamide optical isomer]
87 | CS(=O)(=O)N[C@@H]1CN(C(=O)[C@@H]2C[C@H]2c2ccccc2-c2c(F)cccc2F)C[C@H]1F [Example 279, N-{(3R,4R)-1-[(1R,2R)-2-(2′,6′-difluoro[1,1′-biphenyl]-2-yl)cyclopropane-1-carbonyl]-4-fluoropyrrolidin-3-yl}methanesulfonamide]
96 | C[C@H]1C[C@H](NS(=O)(=O)N(C)C)CN1C(=O)[C@@H]1C[C@H]1c1ccccc1-c1c(F)cccc1F [Example 281, N′-{(3S,5S)-1-[(1R,2R)-2-(2′,6′-difluoro[1,1′-biphenyl]-2-yl)cyclopropane-1-carbonyl]-5-methylpyrrolidin-3-yl}-N,N-dimethylsulfuric diamide]
87 | CS(=O)(=O)NC[C@H]1CN(C(=O)[C@@H]2C[C@H]2c2ccccc2-c2c(F)cccc2F)CCO1 [Example 282, N-({(2R)-4-[(1R,2R)-2-(2′,6′-difluoro[1,1′-biphenyl]-2-yl)cyclopropane-1-carbonyl]morpholin-2-yl}methyl)methanesulfonamide]
100 | CS(=O)(=O)NC[C@@H]1CN(C(=O)[C@@H]2C[C@H]2c2ccccc2-c2c(F)cccc2F)CCO1 [Example 283, N-({(2S)-4-[(1R,2R)-2-(2′,6′-difluoro[1,1′-biphenyl]-2-yl)cyclopropane-1-carbonyl]morpholin-2-yl}methyl)methanesulfonamide]
99 | CN(C)S(=O)(=O)N[C@H]1CCN(C(=O)[C@@H]2C[C@H]2c2ccccc2-c2c(F)cccc2F)C1 [Example 289, N′-{(3S)-1-[(1R,2R)-2-(2′,6′-difluoro[1,1′-biphenyl]-2-yl)cyclopropane-1-carbonyl]pyrrolidin-3-yl}-N,N-dimethylsulfuric diamide]
104 | CCS(=O)(=O)NC1COCCN(C(=O)[C@@H]2C[C@H]2c2ccccc2-c2c(F)cccc2F)C1 (stereo partly drawn) [Example 294, N-{(6S)-4-[(1R,2R)-2-(2′,6′-difluoro [1,1′-biphenyl]-2-yl)cyclopropane-1-carbonyl]-1,4-oxazepan-6-yl}ethanesulfonamide, or N-{(6R)-4-[(1R,2R)-2-(2′,6′-difluoro[1,1′-biphenyl]-2-yl)cyclopropane-1-carbonyl]-1,4-oxazepan-6-yl}ethanesulfonamide]
100 | CN(C)S(=O)(=O)NC1COCCN(C(=O)[C@@H]2C[C@H]2c2ccccc2-c2c(F)cccc2F)C1 (stereo partly drawn) [Example 295, N′-{(6S)-4-[(1R,2R)-2-(2′,6′-difluoro[1,1′-biphenyl]-2-yl)cyclopropane-1-carbonyl]-1,4-oxazepan-6-yl}-N,N-dimethylsulfuric diamide, or N′-{(6R)-4-[(1R,2R)-2-(2′,6′-difluoro[1,1′-biphenyl]-2-yl)cyclopropane-1-carbonyl]-1,4-oxazepan-6-yl}-N,N-dimethylsulfuric diamide]
101 | CC1C(NS(C)(=O)=O)CCN1C(=O)[C@@H]1C[C@H]1c1ccccc1-c1c(F)cccc1F (stereo partly drawn) [Example 297, N-{(2R,3R)-1-[(1R,2R)-2-(2′,6′-difluoro[1,1′-biphenyl]-2-yl)cyclopropane-1-carbonyl]-2-methylpyrrolidin-3-yl}methanesulfonamide, or N-{(2S,3S)-1-[(1R,2R)-2-(2′,6′-difluoro[1,1′-biphenyl]-2-yl)cyclopropane-1-carbonyl]-2-methylpyrrolidin-3-yl}methanesulfonamide]
100 | CN(C)S(=O)(=O)NC[C@H]1CCN1C(=O)[C@@H]1C[C@H]1c1ccccc1-c1c(F)cccc1F [Example 298, N′-({(2R)-1-[(1R,2R)-2-(2′,6′-difluoro[1,1′-biphenyl]-2-yl)cyclopropane-1-carbonyl]azetidin-2-yl}methyl)-N,N-dimethylsulfuric diamide]
